Assay [1] deals with tumor infiltrating lymphocytes from B16F10 tumors. Briefly: B16F10 model, flow cytometry of tumor infiltrating lymphocytes (Treg and CD8 frequency). The class given is in vivo, mouse. Particulars: B16F10 tumors collected at Day 5 post-dose, FIG. 4B. From the text:
FIG. 4A and FIG. 4B show bar charts illustrating tumor infiltrating lymphocytes from a syngeneic mouse melanoma model (B16F10). Mice were each administered with a single dose of a control antibody, gemcitabine (“low dose SOC chemo”) and/or an anti-CCR8 antibody, and frequencies of regulatory T-cells (Tregs; […]) or effector T-cells ([…]) were quantified. T test results are shown, wherein **** is p<0.0001, *** p<0.001, ** is p<0.01 and * is p<0.1.
A first study using the B16F10 model tested the relative antitumor activities of anti-CCR8 antibody and gemcitabine administrations as single agents and in combination. Following inoculation, mice were randomized and grouped (n=10 animals per group) when tumors reached 80-120 mm^3 and administered a single dose of low dose gemcitabine at 15 mg/kg (approximately 50% of most efficacious dose) and/or anti-CCR8 antibody Q3D at 1 mg/kg. A control group received an isotype control antibody. […] Tumors were collected at Day 5 post-dose. […] Briefly, tumors were dissociated and prepared for flow cytometry staining. Cells were stained as follows: L/D, CD45, CD3, CD4, CD8, CD25, FoxP3. Samples were acquired on flow cytometer and data generated was used to determine Treg frequency (L/D negative, CD45 positive, CD3 positive, CD4 positive, CD25 positive, FoxP3 positive) and CD8 frequency (L/D negative, CD45 positive, CD3 positive, CD8 positive).
(In flow cytometry, cells or beads pass a laser one at a time.)

The next assay concerns B16F10 (melanoma). The assay can be described thus: B16F10 syngeneic mouse melanoma model, first study, tumor growth. The assay is classed as in vivo. Particulars: single dose low dose gemcitabine 15 mg/kg and/or anti-CCR8 antibody Q3D 1 mg/kg, FIG. 3. The method, then:
(§1) The ability of an anti-CCR8 antibody to augment tumor-specific effector T cell responses when paired with low-dose chemotherapy with or without an anti-PD-1 mAb was tested in vivo in different mouse syngeneic models, including 4T1 (breast cancer), Pan02 (pancreatic cancer), B16F10 (melanoma), LLC (lung cancer). 4T1 and Pan02 models are commonly understood to represent solid tumor models with strong immunosuppressive components. B16F10 and LLC are commonly viewed as cold tumor models.
(§2) The anti-CCR8 antibody used for the studies described herein is a mouse IgG2a isotype, and as described, e.g., by Campbell, J. R., et al. (2021). “Fc-Optimized Anti-CCR8 Antibody Depletes Regulatory T Cells in Human Tumor Models.” Cancer Res 81(11): 2983-2994. Isotype Control is a mouse IgG2a (BioXcell). Anti-PD-1 antibody is a mouse IgG1 antibody with D265A mutation.
A first study using the B16F10 model tested the relative antitumor activities of anti-CCR8 antibody and gemcitabine administrations as single agents and in combination. Following inoculation, mice were randomized and grouped (n=10 animals per group) when tumors reached 80-120 mm^3 and administered a single dose of low dose gemcitabine at 15 mg/kg (approximately 50% of most efficacious dose) and/or anti-CCR8 antibody Q3D at 1 mg/kg. A control group received an isotype control antibody. […] Tumors were collected at Day 5 post-dose. […]

The subject of assay [2] is LLC (lung cancer). Briefly: LLC syngeneic mouse lung model, first study, tumor growth. The class given is in vivo. Particulars: single dose low dose docetaxel 5 mg/kg and/or anti-CCR8 antibody Q3D 1 mg/kg, FIG. 6. The method, then:
as §1, §2
A first study using the LLC model tested the relative antitumor activities of anti-CCR8 antibody and docetaxel administrations as single agents and in combination. Following inoculation, mice were randomized and grouped (n=8 animals per group) when tumors reached 80-120 mm^3 and administered a single dose of low dose docetaxel at 5 mg/kg (approximately 50% of most efficacious dose) and/or anti-CCR8 antibody Q3D at 1 mg/kg. A control group received an isotype control antibody.

For assay [3], the system named is LLC (lung cancer). Briefly: LLC syngeneic mouse lung model, second study (single, dual, triple combinations), tumor growth. The class given is in vivo. Particulars: docetaxel 5 mg/kg, anti-CCR8 antibody Q3D 1 mg/kg, anti-PD-1 antibody Q3D 10 mg/kg, FIG. 7, FIG. 8. As for the experimental part:
as §1, §2
A second study using the LLC model tested the relative antitumor activities of anti-CCR8 antibody, anti-PD-1 antibody, and low dose docetaxel as single agents, dual combinations, and a triple combination. Following inoculation, mice were randomized and grouped (n=10 animals per group) when tumors reached 80-120 mm^3 and administered a single dose of docetaxel at 5 mg/kg, and/or anti-CCR8 antibody Q3D at 1 mg/kg, and/or anti-PD-1 antibody Q3D at 10 mg/kg. A control group received an isotype control antibody. […]

Each structure is given as a SMILES string.

On to `Nc1ccn([C@@H]2O[C@H](CO)[C@@H](O)C2(F)F)c(=O)n1` [gemcitabine], for which the “CD8+ T-cell infiltration in the tumors (CD8 frequency)” value in assay [1] is recorded as “significant CD8+ T-cell infiltration”. In the assay on B16F10 (melanoma), the tumor growth inhibition result is reported as “did not result in substantial tumor growth inhibition”.
On to `CC(=O)O[C@@]12CO[C@@H]1C[C@H](O)[C@@]1(C)C(=O)[C@H](O)C3=C(C)[C@@H](OC(=O)[C@H](O)[C@@H](NC(=O)OC(C)(C)C)c4ccccc4)C[C@@](O)([C@@H](OC(=O)c4ccccc4)[C@H]21)C3(C)C` [docetaxel], for which the results for the tumor growth inhibition result in the assay on LLC (lung cancer) [2] and in the assay with LLC (lung cancer) [3] were “did not result in substantial tumor growth inhibition” and “Partial tumor growth inhibition”, respectively.
